Data reported in PubChem BioAssay AID200 (DTP/NCI, 2004).
Where “and” joins values, the source holds several entries; their conditions need not be identical. Equal entries are not always repeated. Inconclusive results and toxic doses are left out. Where a SMILES comes first, the peptide text is derived from it. The star is where a group is joined. Cbz = O=C(OCc1ccccc1)*

System: B6C3F1 mice, B16 melanoma ip, median survival T/C
Test: NCI In Vivo Anticancer Drug Screen. Data for tumor model B16 Melanoma (intraperitoneal) in B6C3F1 mice
Conditions: endpoint: median survival time, schedule: Q01DX009 (ip), higher = longer survival
Protocol: The antitumor activity of compounds was measured in mice bearing transplantable tumors. Survival or tumor size were measured and the results are expressed as the measurement made in the treated group (T) divided by the measurement made in the vehicle treated control group (C). The tumor model used in this assay is B16 Melanoma (intraperitoneal) in B6C3F1 mice

[1] = dose: 12.5 mg/kg/injection, vehicle: saline
[2] = dose: 25.0 mg/kg/injection, vehicle: saline
[3] = dose: 50.0 mg/kg/injection, vehicle: saline
[4] = dose: 100.0 mg/kg/injection, vehicle: saline
[5] = dose: 200.0 mg/kg/injection, vehicle: saline
[6] = dose: 400.0 mg/kg/injection, vehicle: saline
[7] = dose: 6.25 mg/kg/injection, vehicle: saline
[8] = dose: 12.5 mg/kg/injection, vehicle: saline with Tween-80
[9] = dose: 25.0 mg/kg/injection, vehicle: saline with Tween-80
[10] = dose: 50.0 mg/kg/injection, vehicle: saline with Tween-80
[11] = dose: 100.0 mg/kg/injection, vehicle: saline with Tween-80
[12] = dose: 200.0 mg/kg/injection, vehicle: saline with Tween-80
[13] = dose: 400.0 mg/kg/injection, vehicle: saline with Tween-80
[14] = dose: 6.25 mg/kg/injection, vehicle: saline with Tween-80

For CC(C)C(N)C(=O)Nc1nncs1 (configuration not stated), the T/C [1] was 102 % of control, the T/C [2] was 104 % of control and the T/C [3] was 98 % of control. The T/C [4] was 113 % of control, the T/C [5] was 114 % of control and the T/C [6] was 117 % of control.

CCN(CC)CC[n+]1ccc2c(C)c3[nH]c4ccc(O)cc4c3c(C)c2c1 was tested, and the T/C (dose: 3.12 mg/kg/injection, vehicle: saline) was 175 % of control, the T/C [7] was 151 % of control and 171 % of control and the T/C (dose: 6.25 mg/kg/injection, vehicle: suspension in saline) was 151 % of control.

With CC(C#N)(C#N)N=Nc1ccc(Cl)cc1Cl the T/C [8] was 98 % of control, the T/C [9] was 95 % of control and the T/C [10] was 95 % of control. The T/C [11] was 95 % of control, the T/C [12] was 110 % of control and the T/C [13] was 89 % of control.

CCC(C)C(NC(=O)CN)C(=O)O (configuration not stated) (HELM PEPTIDE1{G.[CCC(C)C(N[*:1])C(=O)O]}$$$$V2.0) was tested, and the T/C [3] was 92 % of control, the T/C [4] was 92 % of control and the T/C [5] was 92 % of control.

With C1CNCOC1 the T/C [7] was 112 % of control and 95 % of control, the T/C [1] was 102 % of control and 104 % of control and the T/C [2] was 96 % of control and 101 % of control. The T/C [3] was 96 % of control and 103 % of control, the T/C [4] was 112 % of control and the T/C [5] was 105 % of control.

In the case of [Cl][Pt+2][Cl].[NH-]c1cc(Cl)c(Cl)c(Cl)c1[NH-], the T/C (dose: 40.0 mg/kg/injection, vehicle: distilled water + Tween-80) is reported as 109 % of control and the T/C (dose: 80.0 mg/kg/injection, vehicle: distilled water + Tween-80) is reported as 102 % of control.

In the case of C=C1C(O)C2(O)OCC34C(CC5C(C)=CC(=O)C(O)C5(C)C23)OC(=O)C(OC(=O)C/C=C/CCCCCCCC)C14 (configuration not stated), the T/C (dose: 4.0 mg/kg/injection, vehicle: saline + alcohol) is reported as 182 % of control, the T/C (dose: 5.76 mg/kg/injection, vehicle: saline + Tween-80 + alcohol) is reported as 160 % of control and the T/C (dose: 8.0 mg/kg/injection, vehicle: saline + alcohol) is reported as 182 % of control. The T/C (dose: 9.6 mg/kg/injection, vehicle: saline + Tween-80 + alcohol) was 197 % of control, the T/C (dose: 16.0 mg/kg/injection, vehicle: saline + Tween-80 + alcohol) was 176 % of control and the T/C (dose: 16.0 mg/kg/injection, vehicle: saline + alcohol) was 192 % of control.

CNC(=O)c1cccc2c(Nc3ccc(NS(C)(=O)=O)cc3OC)c3cccc(C)c3nc12 was tested, and the T/C (dose: 0.75 mg/kg/injection, vehicle: water) was 116 % of control, the T/C (dose: 0.78 mg/kg/injection, vehicle: water) was 114 % of control and the T/C (dose: 3.0 mg/kg/injection, vehicle: water) was 168 % of control. The T/C (dose: 6.25 mg/kg/injection, vehicle: water) was 106 % of control.

In the case of CC(C)(C#CC(C)(C)OC(=O)Nc1ccccc1)OC(=O)Nc1ccccc1, the T/C [4] is reported as 106 % of control, the T/C [5] is reported as 100 % of control and the T/C [6] is reported as 98 % of control.

For COCC12CCC(OC)C34C5CC6(O)C(OC)CC(OC(C)=O)(C5C6OC(=O)c5ccccc5)C(C(OC)C13)C4N(C)C2 (configuration not stated), the T/C (dose: 15.0 micrograms/kg/injection, vehicle: Klucel (hydroxypropylcellulose) (HPC)) was 92 % of control, the T/C (dose: 30.0 micrograms/kg/injection, vehicle: Klucel (hydroxypropylcellulose) (HPC)) was 108 % of control and the T/C (dose: 60.0 micrograms/kg/injection, vehicle: Klucel (hydroxypropylcellulose) (HPC)) was 96 % of control. The T/C (dose: 120.0 micrograms/kg/injection, vehicle: Klucel (hydroxypropylcellulose) (HPC)) was 99 % of control.

In the case of C1OC1C1CO1 (configuration not stated), the T/C (dose: 1.25 mg/kg/injection, vehicle: saline) is reported as 92 % of control and 104 % of control, the T/C (dose: 2.5 mg/kg/injection, vehicle: saline) is reported as 91 % of control and 101 % of control (2×) and the T/C (dose: 5.0 mg/kg/injection, vehicle: saline) is reported as 113 % of control and 103 % of control and 105 % of control. The T/C (dose: 10.0 mg/kg/injection, vehicle: saline) was 117 % of control and 122 % of control, the T/C (dose: 20.0 mg/kg/injection, vehicle: saline) was 118 % of control and 121 % of control and the T/C (dose: 40.0 mg/kg/injection, vehicle: saline) was 161 % of control.

CO[C@H](C(=O)[C@@H](O)[C@@H](C)O)[C@@H]1Cc2cc3cc(OC4CC(OC5CC(O)C(O)C(C)O5)C(O)C(C)O4)c(C)c(O)c3c(O)c2C(=O)[C@H]1OC1CC(OC2CC(OC3CC(C)(O)C(O)C(C)O3)C(O)C(C)O2)C(O)C(C)O1 (some centres not stated) was tested, and the T/C (dose: 0.06 mg/kg/injection, vehicle: saline) was 111 % of control, the T/C (dose: 0.12 mg/kg/injection, vehicle: saline) was 101 % of control and the T/C (dose: 0.25 mg/kg/injection, vehicle: saline) was 101 % of control. For the same molecule, the T/C (dose: 0.5 mg/kg/injection, vehicle: saline) was 117 % of control, the T/C (dose: 1.0 mg/kg/injection, vehicle: saline) was 105 % of control and the T/C (dose: 2.0 mg/kg/injection, vehicle: saline) was 113 % of control.

Cc1cc2c(C(C)C)c(O)c(O)c(C=NCCO)c2c(O)c1-c1c(C)cc2c(C(C)C)c(O)c(O)c(C=NCCO)c2c1O was tested, and the T/C [9] was 109 % of control and 111 % of control and 103 % of control, the T/C [10] was 108 % of control and 109 % of control and 91 % of control and the T/C [11] was 109 % of control and 121 % of control and 101 % of control. For the same molecule, the T/C [12] was 114 % of control and 120 % of control and the T/C [13] was 153 % of control.

In the case of O=C(Nc1cccc2c(OC(=O)C(Cl)Cl)c(N=Nc3ccc(S(=O)(=O)Nc4nccs4)cc3)cc(N=Nc3ccc(S(=O)(=O)Nc4nccs4)cc3)c12)C(Cl)Cl (tested in a mixture with another compound), the T/C (dose: 3.12 mg/kg/injection, vehicle: saline with Tween-80) is reported as 104 % of control, the T/C (dose: 3.13 mg/kg/injection, vehicle: saline with Tween-80) is reported as 94 % of control and the T/C [14] is reported as 115 % of control and 119 % of control and 87 % of control. For the same molecule, the T/C [8] was 114 % of control and 100 % of control and 104 % of control, the T/C [9] was 109 % of control and the T/C [10] was 108 % of control. For the same molecule, the T/C [11] was 95 % of control.

With CN(C)CCNc1ccc([N+](=O)[O-])c2sc3ccccc3c(=O)c12 the T/C [14] was 113 % of control, the T/C [7] was 105 % of control and the T/C [8] was 117 % of control and 102 % of control. For the same molecule, the T/C [1] was 101 % of control, the T/C [9] was 118 % of control and the T/C [2] was 103 % of control. For the same molecule, the T/C [3] was 106 % of control.

With C=CC(C)(C)n1cc(C2=C(O)C(=O)C(c3cn(C(C)(C)C=C)c4ccccc34)=C(O)C2=O)c2ccccc21 the T/C (dose: 2.5 micrograms/kg/injection, vehicle: DMSO) was 87 % of control, the T/C (dose: 5.0 micrograms/kg/injection, vehicle: DMSO) was 91 % of control and the T/C (dose: 10.0 micrograms/kg/injection, vehicle: DMSO) was 86 % of control. For the same molecule, the T/C (dose: 20.0 micrograms/kg/injection, vehicle: DMSO) was 87 % of control.

COC(=O)C(NC(=O)C(NC(=O)OCc1ccccc1)C(C)O)C(C)C (stereo not drawn) (Cbz-Thr-Val-OMe; configuration not given here) was tested, and the T/C (dose: 100.0 mg/kg/injection, vehicle: Klucel (hydroxypropylcellulose) (HPC)) was 94 % of control, the T/C (dose: 200.0 mg/kg/injection, vehicle: Klucel (hydroxypropylcellulose) (HPC)) was 93 % of control and the T/C (dose: 400.0 mg/kg/injection, vehicle: Klucel (hydroxypropylcellulose) (HPC)) was 108 % of control.

In the case of C=C(C)C(=NC(C)(C)C)Nc1ccccc1, the T/C [14] is reported as 98 % of control, the T/C [8] is reported as 122 % of control and the T/C [9] is reported as 109 % of control. For the same molecule, the T/C [10] was 91 % of control, the T/C [11] was 96 % of control and the T/C [12] was 114 % of control.
